Laboratory results reported in paper PMC8233204, “Cardiac myosin-binding protein C interaction with actin is inhibited by compounds identified in a high-throughput fluorescence lifetime screen” (The Journal of Biological Chemistry, 2021).
Entries after “also recorded” stand apart in the source; their conditions may differ. Where two headings read alike, the source gives them in different places.

How the values were obtained:
[1] = target: T1, AF568-actin:C0-C2 (actin-cMyBP-C binding) (Homo sapiens, UniProt Q14896); test: TR-F high-throughput screen of LOPAC library, AF568-actin with C0-C2; settings: for Actin-MyBP-C Drug Δτ, Screen 1 / Actin-MyBP-C Drug Δτ, Screen 2 / Actin-MyBP-C Drug Δτ, Sub-optimal Screen 3 / Actin-MyBP-C Drug Δτ, Sub-optimal Screen 4 / average change in lifetime, SD above the median of all compounds not excluded: 10 μM compound, 1 μM AF568-actin, 2 μM C0-C2; for average change in lifetime, SD above the median of all compounds not excluded: average of screens; for Difference, Screen 1 / Difference, Screen 2 / Difference, Sub-optimal Screen 3 / Difference, Sub-optimal Screen 4: Δτ actin+C0-C2 after subtracting effect on actin alone
T1 sequence (Q14896 1-451 limits assumed): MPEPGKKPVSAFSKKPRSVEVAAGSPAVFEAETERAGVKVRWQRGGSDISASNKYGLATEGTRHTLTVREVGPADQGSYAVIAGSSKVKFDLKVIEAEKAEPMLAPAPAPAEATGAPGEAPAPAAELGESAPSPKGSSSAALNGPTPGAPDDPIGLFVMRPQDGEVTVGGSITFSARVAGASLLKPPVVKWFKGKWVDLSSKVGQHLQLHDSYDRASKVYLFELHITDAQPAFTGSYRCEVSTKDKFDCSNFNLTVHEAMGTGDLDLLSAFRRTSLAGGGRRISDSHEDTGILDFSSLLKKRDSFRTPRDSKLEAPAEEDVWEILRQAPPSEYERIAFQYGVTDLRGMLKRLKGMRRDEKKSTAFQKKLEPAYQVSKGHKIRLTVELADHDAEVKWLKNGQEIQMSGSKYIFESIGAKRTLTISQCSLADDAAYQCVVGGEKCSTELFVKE
Experimental: (§1) The 1280 LOPAC compounds were received in 96-well plates (LOPAC^1280, Sigma-Aldrich) and were reformatted into 1536-well flat, black-bottom polypropylene plates (Greiner Bio-One). In total, 50 nl of compounds was dispensed using an automated Echo 550 acoustic liquid dispenser (Labcyte). LOPAC compounds were formatted into plates, with the first two and last two columns loaded with 50 nl of DMSO and used for compound-free controls. The final concentration of the compounds was 10 μM. These assay plates were then heat-sealed using a PlateLoc Thermal Microplate Sealer (Agilent Technologies) and stored at –20 °C. Before screening, compound plates were equilibrated to room temperature (25 °C). In total, 1 μM AF568-labeled actin without or with 2 μM C0-C2 in M-ABB was dispensed by a Multidrop Combi Reagent Dispenser (Thermo Fisher Scientific) into the 1536-well assay plates containing the compounds. Plates were incubated at room temperature for 20 min before recording the data with the FLTPR. Plates were rescanned after 120 min incubation.
(§2) Two full screens were done using different batches of AF568-labeled actin, C0-C2, and test compounds.
(§3) Following data acquisition, TR-F waveforms observed for each well were convolved with the IRF to determine the lifetime (τ) (Equation 1) by fitting to a single-exponential decay ([15], [35]).
(§4) A compound was considered a Hit if it was in the top 25 compounds in each of two independent screenings of the LOPAC. Top compounds were those that increased the lifetime of AF568-actin when C0-C2 was present (indicating inhibition of C0-C2 binding). Compounds that altered AF568-actin lifetime when C0-C2 was not present by >4 SD relative to that of the control samples (those exposed to 0.1% DMSO) were first removed from the analysis. […] Any change in lifetime induced by a compound on AF568-actin alone was then subtracted from the effect of the compound on AF568-actin when C0-C2 was present. The resulting C0-C2-dependent change for all compounds was ranked.

AF568-actin = target: T2, AF568-actin (Oryctolagus cuniculus, UniProt P68135); test: TR-F high-throughput screen, AF568-actin alone (no C0-C2); assay type: binding, rabbit; settings: 10 μM compound; 1 μM AF568-actin alone
T2 construct: Actin was prepared from rabbit skeletal muscle by extracting acetone powder; from tissue; host or cells: rabbit skeletal muscle (acetone powder)
Experimental: as §1, §2, §3, §4

[2] = target: T1, AF568-actin:C0-C2 (actin-cMyBP-C binding); test: TR-F concentration-response assay, AF568-actin with C0-C2; settings: 2 μM C0-C2; for EC50: 1 μM AF568-actin, mean ± SE; for TR-F n: n not defined in table
Experimental: (§5) Using the same conditions as in the primary screen, we determined the concentration dependence of each of the three Hit compounds on the AF568-actin lifetime effects. […] In a separate dose–response assay utilizing 3 μM C0-C2, we compared the effects of the compounds on nonphosphorylated and phosphorylated C0-C2. […] In the second dose-response assay, 3 μM instead of 2 μM C0-C2 was used in the second dose–response assay so that effects of compounds on phosphorylated C0-C2 could be readily detected, as phosphorylation of C0-C2 itself (in the absence of compounds) reduces binding to actin.
The Hit compounds were dissolved in DMSO to make a 10 mM stock solution, which was serially diluted in 96-well mother plates. Hits were screened at eight concentrations (0.5–100 μM). Compounds (1 μl) were transferred from the mother plates into 384-well plates using a Mosquito HV liquid handler (TTP Labtech Ltd). The same procedure of dispensing as for the pilot screening was applied in the TR-F concentration–response assays. Concentration dependence of the TR-F change was fitted using the Hill equation ([38]):(3) τ=τo+τmaxC^α/EC50α+C^α where τ and τ0 are TR-F in the presence and in the absence of the compound, τmax is the maximum effect, C is the compound concentration, EC50 is the compound concentration for which 50% of maximum effect is obtained, and α is the Hill coefficient of sigmoidicity.

[3] = target: C0-C2 portion of human cMyBP-C (Homo sapiens, UniProt Q14896); test: Isothermal titration calorimetry (ITC) of compounds binding to C0-C2; settings: for ITC ΔS / ITC ΔH / ITC ΔG: Table 1 average; for ITC ΔS: no unit in table (Fig. 4: J/mol•K); for ITC ΔH: no unit in table (Fig. 4: kJ/mol); for ITC ΔG: unit not given; for ITC n (stoichiometry, compound per C0-C2): average of two preparations
Sequence of C0-C2 portion of human cMyBP-C (Q14896 1-451 limits assumed): as above

F-actin = target: T3, F-actin (Oryctolagus cuniculus, UniProt P68135); test: ITC of compounds with actin alone; assay type: binding, rabbit; settings: for ITC interaction with F-actin (in words): actin alone
T3 construct: Actin was prepared from rabbit skeletal muscle by extracting acetone powder; from tissue; host or cells: rabbit skeletal muscle (acetone powder)
Experimental: The titration of compounds binding to cMyBP-C was performed on an Affinity ITC (TA Instruments). Each compound in M-ABB buffer (2000–3000 μM) was titrated into C0-C2 in M-ABB buffer (100 μM, 350 μl). For the titration, a preliminary 2.5-μl injection (ignored in data analysis) was followed by 19–39 subsequent 2.5-μl injections with 4 min waits between each injection. The reference cell was filled with distilled water. To account for heat changes of dilution and mechanical mixing, binding data were corrected by subtraction of the final plateau injection values (when binding is complete) prior to curve fitting. Corrected binding data was processed using the NanoAnalyze analysis software (TA Instruments).
Figure S2. ITC of Suramin binding to actin alone. (A) Titration of 100 µM F-actin (in 350 µl) with 40 2.5
µl injections of 3,000 µM Suramin. (B) Fitted ITC binding curve for Suramin binding. Binding to actin was
for Suramin with actin alone (Kd ~200 µM).
(1 picture or pasted object on this page, not shown here)

[4] = target: T4, FMAL-actin:TMR-C0-C2^Cys225 (Homo sapiens, UniProt Q14896, C239L/C249S/C426T/C436V/C443S/H225C); test: FMAL-actin-TMR-C0-C2 TR-FRET binding assay; settings: 1 μM FMAL-actin, 2 μM TMR-C0-C2, both nonphosphorylated and phosphorylated C0-C2
T4 construct: N-terminal domains C0 through C2 (C0-C2), containing the proline/alanine-rich linker (P/A) and the M-domain (M); 6x His (N, cleaved yes); TEV protease cleavage site (N, cleaved yes); made in house; host or cells: E. coli BL21DE3 (C0-C2^Cys225); actin purified from rabbit skeletal muscle
T4 sequence (Q14896 1-451 H225C/C239L/C249S/C426T/C436V/C443S limits assumed): as the sequence (Q14896 1-451 limits assumed) above, with H225C, C239L, C249S, C426T, C436V, C443S counted along it
Experimental: In total, 1 μM F-Actin labeled (to 10%) on Cys-374 with FMAL (donor fluor) was incubated with increasing concentrations (0–20 μM) of C0-C2^Cys225 unlabeled (for donor only (D) data acquisition) or labeled to 95% with TMR (acceptor fluor) (for donor–acceptor (DA) data). Lifetimes of FMAL-actin were determined for D and DA at each concentration of C0-C2^Cys225. TR-FRET efficiency (1 – (τDA/τD)) was determined for each C0-C2^Cys225 concentration. The binding curve was generated from data from two separate preparations of actin and C0-C2^Cys225. Testing of compound effects by TR-FRET was similarly done at 1 μM FMAL-actin with unlabeled C0-C2^Cys225 (D) and TMR-C0-C2^Cys225 (DA), both at 2 μM.

C0-C2 = target: T5, C0-C2 (Homo sapiens, UniProt Q14896); test: Visible light scattering (C0-C2 aggregation); settings: 2 or 10 μM C0-C2 mixed with compound for 20 min
T5 construct: N-terminal domains C0 through C2 (C0-C2), containing the proline/alanine-rich linker (P/A) and the M-domain (M); 6x His (N, cleaved yes); TEV protease cleavage site (N, cleaved yes); made in house; host or cells: E. coli BL21DE3
T5 sequence (Q14896 1-451 limits assumed): as the sequence (Q14896 1-451 limits assumed) above
Experimental: All three drugs were tested for causing C0-C2 to aggregate by measuring absorbance in the visible range beyond the absorption of protein or the drugs themselves. Observed absorbance in these wavelengths is actually loss of transmitted light due to light scattering from aggregated C0-C2. 2 or 10 μM of C0-C2 was mixed with 20 μM of suramin, NF023, or ATA for 20 min and wavelengths 250–600 nm were scanned using a Beckman Coulter DU730 UV/Vis Spectrophotometer to determine optical density. The same was done with 2 or 10 μM of C0-C2 and 20 μM of suramin, NF023, or ATA alone.

[5] = target: AF568-actin:phosphorylated (by PKA) C0-C2 (Homo sapiens, UniProt Q14896); test: TR-F concentration-response assay, AF568-actin with PKA-phosphorylated C0-C2; settings: for TR-F+PKA n: 3 μM phosphorylated C0-C2, n not defined in table
Sequence of AF568-actin:phosphorylated (by PKA) C0-C2 (Q14896 1-451 limits assumed): as above
Experimental: as §5
C0-C2 was treated with 7.5 ng PKA/μg C0-C2 at 30 °C for 30 min.
The Hit compounds were dissolved in DMSO to make a 10 mM stock solution, which was serially diluted in 96-well mother plates. Hits were screened at eight concentrations (0.5–100 μM). Compounds (1 μl) were transferred from the mother plates into 384-well plates using a Mosquito HV liquid handler (TTP Labtech Ltd). The same procedure of dispensing as for the pilot screening was applied in the TR-F concentration–response assays.

[6] = target: FMAL-actin (F-actin from rabbit skeletal muscle labeled at Cys-374 with fluorescein-5-maleimide) (rabbit) (UniProt P68135); test: FRET or BRET; TR-FRET; 1 μM F-actin labeled (to 10%) with FMAL (donor) with 0-20 μM TMR-C0-C2^Cys225 (acceptor) ±PKA; M-ABB
[7] = target: FMAL-actin (F-actin from rabbit skeletal muscle labeled at Cys-374 with fluorescein-5-maleimide) (rabbit) (UniProt P68135); test: as above; remark: listed apart in the source
[8] = compound binding to C0-C2, mean ± SE, two protein preparations, read-out: ITC Kd
[9] = single titration shown in Fig. 4
[10] = single titration shown in Fig. 4, 100 μM C0-C2, read-out: ITC Kd (fitted curve of Figure 4)

Row | Molecule | Actin-MyBP-C Drug Δτ, Screen 1 [1] | Actin-MyBP-C Drug Δτ, Screen 2 [1] | Actin-MyBP-C Drug Δτ, Sub-optimal Screen 3 [1] | Actin-MyBP-C Drug Δτ, Sub-optimal Screen 4 [1] | average change in lifetime, SD above the median of all compounds not excluded [1] | Difference, Screen 1 [1] | Difference, Screen 2 [1] | Difference, Sub-optimal Screen 3 [1] | Difference, Sub-optimal Screen 4 [1] | Actin Drug Δτ, Screen 1 (AF568-actin) | Actin Drug Δτ, Screen 2 (AF568-actin) | Actin Drug Δτ, Sub-optimal Screen 3 (AF568-actin) | Actin Drug Δτ, Sub-optimal Screen 4 (AF568-actin) | EC50 [2] | TR-F n [2] | ITC ΔS [3] | ITC ΔH [3] | ITC ΔG [3] | ITC n (stoichiometry, compound per C0-C2) [3] | Kd [3, 8] | also measured
1 | O=C(O)C1=CC(=C(c2ccc(O)c(C(=O)O)c2)c2ccc(O)c(C(=O)O)c2)C=CC1=O [ATA, aurintricarboxylic acid] | 0.008 ns | 0.06 ns | 0.07 ns | 0.07 ns | 3.0 SD | 0.04 ns | 0.06 ns | 0.10 ns | 0.07 ns | -0.04 ns | 0.00 ns | -0.03 ns | 0.00 ns | 7.9 ± 1.9 µM | 3.4 | 52.9 | −10.2 | −25.8 | 3.1 | 25.9 ± 2.2 µM | ITC n (fitted curve of Figure 4) [3, 9]: 2.1; ITC ΔH (fitted curve of Figure 4) [3, 9]: -2.49 kcal/mol; ITC ΔS (fitted curve of Figure 4) [3, 9]: 51.5 J/mol•K; Kd [3, 10]: 28.1 µM; ITC interaction with F-actin (in words) (F-actin): not apparent; also recorded: no interaction; TR-FRET measured binding of C0-C2 to actin, effect of compound ([4]; 20 μM compound): almost completely eliminated; also recorded: near zero; absorbance in the visible range (light scatter, C0-C2 aggregation) (C0-C2): detected absorption; EC50 [5]: 4.3 ± 0.9 µM; TR-F+PKA n [5]: 1.4
2 | O=C(Nc1cccc(C(=O)Nc2ccc(S(=O)(=O)O)c3cc(S(=O)(=O)O)cc(S(=O)(=O)O)c23)c1)Nc1cccc(C(=O)Nc2ccc(S(=O)(=O)O)c3cc(S(=O)(=O)O)cc(S(=O)(=O)O)c23)c1 [NF023] | 0.058 ns | 0.07 ns | 0.06 ns | 0.04 ns | 3.8 SD | 0.09 ns | 0.06 ns | 0.08 ns | 0.03 ns | -0.03 ns | 0.01 ns | -0.02 ns | 0.01 ns | 16.3 ± 1.2 µM | 3.2 | −19.2 | −30.2 | −24.6 | 2.1 | 42 ± 3.4 µM | ITC n (fitted curve of Figure 4) [3, 9]: 2.6; ITC ΔH (fitted curve of Figure 4) [3, 9]: -7.43 kcal/mol; ITC ΔS (fitted curve of Figure 4) [3, 9]: 20.9 J/mol•K; Kd [3, 10]: 35.1 µM; ITC interaction with F-actin (in words) (F-actin): not apparent; also recorded: no interaction; TR-FRET measured binding of C0-C2 to actin, effect of compound ([4]; 50 μM compound): almost completely eliminated; absorbance in the visible range (light scatter, C0-C2 aggregation) (C0-C2): did not detect absorption; TR-F+PKA n [5]: 1.8; EC50 ([5]; read-out: TR-F+PKA EC50, 1 μM AF568-actin, 3 μM PKA-phosphorylated C0-C2, mean ± SE): 17.5 ± 11.8 µM
3 | Cc1ccc(C(=O)Nc2ccc(S(=O)(=O)O)c3cc(S(=O)(=O)O)cc(S(=O)(=O)O)c23)cc1NC(=O)c1cccc(NC(=O)Nc2cccc(C(=O)Nc3cc(C(=O)Nc4ccc(S(=O)(=O)O)c5cc(S(=O)(=O)O)cc(S(=O)(=O)O)c45)ccc3C)c2)c1 [Suramin, suramin] | 0.088 ns | 0.15 ns | 0.18 ns | 0.13 ns | 6.5 SD | 0.12 ns | 0.16 ns | 0.21 ns | 0.09 ns | -0.03 ns | 0.00 ns | -0.03 ns | 0.04 ns | 5.9 ± 1.2 µM | 3.6 | 32.3 | −17.4 | −26.8 | 3.4 | 16.6 ± 1 µM | ITC n (fitted curve of Figure 4) [3, 9]: 3.9; ITC ΔH (fitted curve of Figure 4) [3, 9]: -4.25 kcal/mol; ITC ΔS (fitted curve of Figure 4) [3, 9]: 30.2 J/mol•K; Kd [3, 10]: 17.6 µM; Kd (F-actin): ~200 µM; ITC interaction with F-actin (in words) (F-actin): weak interaction; TR-FRET measured binding of C0-C2 to actin, effect of compound ([4]; 20 μM compound): almost completely eliminated; absorbance in the visible range (light scatter, C0-C2 aggregation) (C0-C2): did not detect absorption; EC50 [5]: 4.8 ± 1.2 µM; TR-F+PKA n [5]: 1.2
4 | TMR-C0-C2^Cys225 (single-cysteine C0-C2 of human cMyBP-C labeled with tetramethylrhodamine at Cys225) (from UniProt Q14896 1-1274) (domain or fragment) | – | – | – | – | – | – | – | – | – | – | – | – | – | – | – | – | – | – | – | – | Kd [6]: 1 µM; Kd [7]: 2.6 µM; donor lifetime τDA of FMAL-actin with 20 μM TMR-C0-C2^Cys225 (τD = 4.2 ns) [7]: 2 ns
